Results on 12 molecules are retold here after patent US8563715B2, “Pyrimidine derivative having cell protecting effect and uses thereof” (Zenyaku Kogyo Kabushikikaisha, priority 2008, dated 2013).

In assay [1] the test system is rat brain homogenate (lipid peroxide production). Description: Antioxidant activity test (rat brain homogenate autoxidation test). The class given is biochemical. Conditions: lipid peroxide production suppression, 2 hours at 37 degrees Celsius, thiobarbituric acid method. On the procedure:
The cerebrum was removed from 7 to 11 week old male Wistar rats (Nihon Ikagaku) or male Sprague-Dawley (IGS) rats (Charles River), physiological saline was added, and a 20% brain homogenate was made. 4 μl of test compound dissolved in DMSO was mixed with 200 μl of brain homogenate and 200 μl of PBS (−) (diluted 100 times), incubated for 2 hours at 37 degrees Celsius and shaken at a rate of 160 times per minute, thereby producing a lipid peroxide. After cooling for 5 minutes, the produced lipid peroxide was measured as a thiobarbituric acid reactive substance by using the thiobarbituric acid method. Briefly, 100 μl of 8.1% dodecyl sulfate, 750 μl of 20% acetic acid adjusted to a pH of 3.5, and 750 μl of 0.8% thiobarbituric acid were added, and boiled for 60 minutes, and then cooled. Next, 500 μl of distilled water and 2.5 ml of N-butanol/pyridine (15:1) were added and after 5 minutes of shaking, the supernatant was taken after centrifuging for 10 minutes at 3000 rpm, and the absorbance at 532 nm was measured. The number of examples was 2 examples. Calculation was done of the (absorbance at each concentration/absorbance of a solvent control)×100, and after logit transformation, the lipid peroxide production suppression effect (IC 50 value) was calculated as an indicator of antioxidant activity.

Assay [2] deals with astrocyte/neuron co-culture. Description: Brain cell damage induced by hydrogen peroxide treatment (LDH assay). The class given is cell-based. The conditions noted are these: Rattus norvegicus, hydrogen peroxide (250 μM), 24 hours, read-out: 50% inhibition concentration against cell damage in entire co-culture system (EC50 value). The method in brief: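 Rat primary cortical/hippocampal co-cultures were used 8–9 days after plating neurons (E18.5) on neonatal astrocyte layers. Test substance was added together with 250 μM hydrogen peroxide, and cells were analysed 24 h later. LDH release gave EC50 for protection of the whole co-culture, and microscopy of neuronal cell bodies and processes gave neuroprotection.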

The test system of assay [3] is neurons in astrocyte/neuron co-culture. Description: Brain cell damage induced by hydrogen peroxide treatment (neuroprotective effect, microscope observation). The class given is cell-based. The conditions noted are these: Rattus norvegicus, hydrogen peroxide (250 μM), 24 hours, read-out: Concentration for complete inhibition of neuronal death. The method, then: The brain was removed from 1 to 2 day old Wistar rats (Charles River) or Sprague-Dawley (IGS) rats (Charles River), and the cerebral cortex including the hippocampus was excised under ice cooling. After this cerebral cortex was minced, it was digested with papain solution (9 U/ml) containing DNase I (30 U/ml) at 37 degrees Celsius for 15 minutes, dispersing the cells. After further carrying out mechanical dispersing by pipetting, it was passed through a cell strainer with a pore size of 70 μm, and a cell suspension was obtained. Cells derived from 1.4 cerebra were seeded on 150 mm tissue culture dish (Iwaki Glass), and primary culture was carried out at 37 degrees Celsius and 5% CO2 using a D-MEM medium (Invitrogen) containing 10% heat-inactivated fetal calf serum (JRH). One day after the start of the culture, the nonadherent cells were removed, and the primary cultured astrocytes were obtained by continuing the culture for 4 to 5 further days. The primary cultured astrocytes were dispersed by trypsin treating, suspended in cryopreservation solution, and cryopreserved.
After thawing the cryopreserved primary cultured astrocytes, they were seeded on tissue culture plates (Iwaki Glass), and a confluent astrocyte layer was produced by a further 7 days of secondary culture using a D-MEM medium containing 10% heat-inactivated fetal calf serum. Neurons to be used in the co-culture with the astrocyte layer were obtained from fetal rat cerebrum. Briefly, brains were removed from Wistar rats (Charles River) or Sprague-Dawley (IGS) rats (Charles River) of embryonic age 18.5 days, and the cerebral cortex including the hippocampus was excised under ice cooling. After this cerebral cortex was minced, it was digested in papain solution (9 U/ml) containing DNase I (30 U/ml) at 37 degrees Celsius for 15 minutes, dispersing the cells. After further carrying out mechanical dispersing by pipetting, it was passed through a cell strainer with a pore size of 70 μm, and a cell suspension was obtained. This cell suspension was plated at a density of 1.3×10^5 cells/cm^2 on the astrocyte layer, and a co-culture was carried out using D-MEM/F-12 medium (Invitrogen) containing 10% heat-inactivated fetal calf serum and 5% horse serum (Invitrogen). 2 days after the start of the co-culture, cells were treated for 24 hours with 10 μM cytosine arabinoside in order to suppress the excessive cell proliferation of microglia and the like. 8 to 9 days after the start of the co-culture, cells were used for the test. Additionally, using one portion of the cells, immunofluorescent staining and nuclear staining was carried out with astrocyte recognizing antibodies (anti-GFAP) and neuron recognizing antibodies (anti-MAP2), in order to confirm that the present culture system is a co-culture system of astrocytes and neurons.
An astrocyte/neuron co-culture cultured on a 96 well plate was used in the test. A predetermined concentration of the test substance and hydrogen peroxide (250 μM) was simultaneously added to the cell culture in each well with continuing cultivation, and analysis was done 24 hours after this treatment. Using an LDH Cytotoxicity Detection Kit (Takara Bio), analysis was carried out in accordance with the included instruction manual, and the damage to the entire co-culture system by the hydrogen peroxide treatment and the protective effect (EC 50 value) of the test substance was evaluated. Further, the cell bodies and the neuronal processes of the neurons were observed by microscope, and the neuroprotective effect was evaluated.

What is called IC50 is the midpoint of a concentration-inhibition curve. Low values mean inhibition by little substance, high ones a need for much substance. In turn, `COc1ccc(/C=C/c2nc(N(C)C)c(N)c(N(C)C)n2)cc1` [Compound 140, 5-amino-4,6-bis(dimethylamino)-2-[2-(4-methoxyphenyl)vinyl]pyrimidine] yielded an IC50 in assay [1] of 550 nM. For the same molecule, the EC50 in assay [2] was 5150 nM. In addition, the EC100 in assay [3] was 10 µM.
The matching figures for `Nc1ccc(N2CCN(c3nc(N4CCOCC4)nc(N4CCOCC4)c3F)CC2)cc1` [Compound 146, 4-[4-(4-aminophenyl)piperazin-1-yl]-5-fluoro-2,6-dimorpholinopyrimidine]: 1910 nM, 960 nM and 3 µM.
The matching figures for `Cc1ccc(N2CCN(c3nc(N4CCNCC4)nc(N4CCOCC4)c3F)CC2)cc1` [Compound 149, 5-fluoro-4-[4-(4-methylphenyl)piperazin-1-yl]-6-morpholino-2-(1-piperazinyl)pyrimidine]: 9750 nM, 420 nM and 10 µM.
The matching figures for `COc1ccc(/C=C/c2nc(N3CCNCC3)c(N)c(N3CCOCC3)n2)cc1` [Compound 170, 5-amino-2-[2-(4-methoxyphenyl)vinyl]-4-morpholino-6-(1-piperazinyl)pyrimidine]: 3100 nM, 990 nM and 3 µM.
Consider `COc1ccc(/C=C/c2nc(NCCN3CCNCC3)c(N)c(N3CCOCC3)n2)cc1` [Compound 173, 5-amino-2-[2-(4-methoxyphenyl)vinyl]-4-morpholino-6-[2-(1-piperazinyl)ethylamino]pyrimidine], for which, in assay [1], the IC50 came out at 2080 nM. Moreover, the EC50 in assay [2] amounted to 4720 nM. For the same molecule, the EC100 in assay [3] amounted to 30 µM.
On to `COc1ccc(/C=C/c2nc(N3CCOCC3)c(N)c(N3CCN(CCN(C)C)CC3)n2)cc1` [Compound 175, 5-amino-2-[2-(4-methoxyphenyl)vinyl]-4-[4-(2-dimethylaminoethyl-piperazin-1-yl)]-6-morpholinopyrimidine], for which the IC50 in assay [1] turned out to be 2080 nM. Further, the EC50 in assay [2] is 3240 nM. Moreover, the EC100 in assay [3] was determined as 10 µM.
The corresponding values for `COc1ccc(/C=C/c2nc(N3CCOCC3)c(N)c(N3CCN(C(=O)CN)CC3)n2)cc1` [Compound 176, 5-amino-4-(4-aminomethylcarbonylpiperazin-1-yl)-2-[2-(4-methoxyphenyl)vinyl]-6-morpholinopyrimidine] are 2160 nM, 2740 nM and 10 µM.
The corresponding values for `COc1ccc(/C=C/c2nc(N3CCOCC3)c(N)c(N3CCC(N)CC3)n2)cc1` [Compound 196, 5-amino-4-(4-aminopiperidin-1-yl)-2-[2-(4-methoxyphenyl)vinyl]-6-morpholinopyrimidine] are 2730 nM, 3780 nM and 10 µM.
Consider `COc1ccc(/C=C/c2nc(NCC(=O)OC(C)(C)C)c(N)c(N3CCOCC3)n2)cc1` [Compound 197, 5-amino-4-(4-tert-butoxycarbonylmethylamino)-2-[2-(4-methoxyphenyl)vinyl]-6-morpholinopyrimidine], for which it took 990 nM to reach half-maximal inhibition in assay [1] (IC50). In addition, the EC50 in assay [2] was found to be 550 nM. In addition, in assay [3], the EC100 is 3 µM.
The matching figures for `COc1ccc(/C=C/c2nc(N3CCOCC3)c(N)c(N(C)C3CCN(C)CC3)n2)cc1` [Compound 198, 5-amino-2-[2-(4-methoxyphenyl)vinyl]-4-[N-methyl-N-(1-methylpiperidin-4-yl)amino]-6-morpholinopyrimidine]: 1040 nM, 3740 nM and 10 µM.
The matching figures for `COc1ccc(CCc2nc(N3CCNCC3)c(N)c(N3CCOCC3)n2)cc1` [Compound 199, 5-amino-2-[2-(4-methoxyphenyl)ethyl]-4-(1-piperazinyl)-6-morpholinopyrimidine]: 8120 nM, 3050 nM and 10 µM.
On to `COc1ccc(/C=C/c2nc(N3CCOCC3)c(F)c(N3CCOCC3)n2)cc1` [Compound 216, 5-fluoro-2-[2-(4-methoxyphenyl)vinyl]-4,6-dimorpholinopyrimidine], for which, in assay [1], half-maximal inhibition (IC50) required 860 nM. Moreover, in assay [2], the EC50 came out at 730 nM. For the same molecule, the EC100 in assay [3] was 3 µM.
